Laboratory results from paper PMC9822036, “Virtual Screening, Synthesis, and Biological Evaluation of Some Carbohydrazide Derivatives as Potential DPP-IV Inhibitors” (Molecules, 2022).

How the values were obtained:
[1] = tested on: STZ-induced diabetic rats; assay: In vivo antidiabetic activity, STZ-induced T2DM model, fasting blood glucose; design: species or system Wistar rats; conditions: compounds 50 mg/kg, sitagliptin 10 mg/kg, daily for 21 days, six rats
Text: The antihyperglycemic potential of certain compounds was investigated in Wistar rats. STZ-induced diabetic rats were employed for the antihyperglycemic testing. The animal experiments were approved by the Institutional Animal Ethics Committee (IAEC) in New Delhi, India (Protocol Number: IAEC/MCP/009/2020). During the research period, the Committee for the Purpose of Control and Supervision of Experiments on Animals (CPCSEA) and IAEC criteria for animal care were followed.
Rats were given a high-fat diet after one week of acclimation. Diabetes was induced in the animals as per the method each described in [25]. Rats were then divided into six groups with six animals. Group I served as normal control with normal rats receiving the vehicle only. Group II served as diabetes control in which rats received the vehicle only. […] Groups IV, V, and VI served as test groups and received compounds 1b, 5b, and 4c, respectively, at doses of 50 mg/kg b.w. The diabetic rats were given the tested compound suspended in 0.5% w/v CMC every day for 21 days. On days 1, 7, 14, and 21, blood samples were taken from the tail veins of each animal that had fasted overnight. A glucometer was used to measure blood glucose levels.

[2] = molecular target: T1, DPP-IV enzyme (Homo sapiens, UniProt P27487); assay: In vitro DPP-IV enzymatic assay; type: biochemical; conditions: means of three independent determinations
T1 construct: purchased Cayman Chemical (only as the URL of the kit insert) 700210
T1 sequence (P27487 whole entry): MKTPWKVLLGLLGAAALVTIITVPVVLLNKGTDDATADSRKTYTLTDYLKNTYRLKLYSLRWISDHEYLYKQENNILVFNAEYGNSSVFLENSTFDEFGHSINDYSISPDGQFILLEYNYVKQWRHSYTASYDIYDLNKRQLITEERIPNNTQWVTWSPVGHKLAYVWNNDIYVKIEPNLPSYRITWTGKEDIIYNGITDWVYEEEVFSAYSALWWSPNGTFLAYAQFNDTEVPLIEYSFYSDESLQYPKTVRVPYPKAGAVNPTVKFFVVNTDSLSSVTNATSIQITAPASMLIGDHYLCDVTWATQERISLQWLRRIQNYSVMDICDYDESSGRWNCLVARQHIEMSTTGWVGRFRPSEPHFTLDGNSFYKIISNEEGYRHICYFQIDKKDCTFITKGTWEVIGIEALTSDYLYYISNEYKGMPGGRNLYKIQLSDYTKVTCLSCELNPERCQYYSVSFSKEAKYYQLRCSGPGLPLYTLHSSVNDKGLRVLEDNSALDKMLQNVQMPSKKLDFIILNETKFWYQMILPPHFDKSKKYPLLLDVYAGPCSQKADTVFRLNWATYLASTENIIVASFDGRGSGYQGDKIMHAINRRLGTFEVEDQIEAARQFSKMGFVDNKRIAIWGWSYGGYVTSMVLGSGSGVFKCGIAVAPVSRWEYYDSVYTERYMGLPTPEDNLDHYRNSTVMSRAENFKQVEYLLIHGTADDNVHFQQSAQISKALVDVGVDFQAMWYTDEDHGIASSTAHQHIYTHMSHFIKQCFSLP
Text: The prepared compounds were investigated in vitro for their ability to inhibit the DPP-IV enzyme, and the detailed method is already described in our previously published paper.

[3] = tested on: rats; assay: Acute toxicity studies (OECD guideline 423); type: in vivo; conditions: oral, 500 mg/kg body weight, monitored for 72 h
Procedure: Acute toxicity studies were performed as per the OECD guideline 423. For compounds 1b, 4c, and 5b, three groups of six rats weighing 80–120 g were starved overnight and given the test compounds orally at doses of 200, 500, 1000, and 2000 mg/kg body weight. The animals were monitored for 72 h, for symptoms of acute toxicity, such as increased or reduced motor activity, tremors, convulsions, and drowsiness, among others. […] As a result, the OECD-recommended dosage for assessing the antidiabetic action was set at 50 mg/kg (i.e., […]).

[4] = tested on: ob/ob mice; conditions: 10 mg/kg p.o., cited from earlier work

Row | Compound | inhibition at 50 µM [2] [%] | IC50 [2] [µM] | other results
1 | COc1ccccc1/C=N/NC(=O)C1=C(C)NC(=O)NC1c1ccccc1F (stereo not shown) [Compound 4c, (E)--4-(2-Fluorophenyl)-N-(2-methoxybenzyldene)-6-methyl-2-oxo-1,2,3,4-tetrahydropyrimidine-5-carbohydrazide] | 60.4 ± 0.08 | 34.94 ± 0.0016 | Fasting Blood Glucose ± SEM, On Day 1 [1]: 264.66 ± 5.70 mg/dL; Fasting Blood Glucose ± SEM, On Day 7 [1]: 237.16 ± 9.01 mg/dL; Fasting Blood Glucose ± SEM, On Day 14 [1]: 194.83 ± 4.81 mg/dL; Fasting Blood Glucose ± SEM, On Day 21 [1]: 169.66 ± 8.53 mg/dL; Acute toxicity, mortality [3]: more than half of the animals died
2 | CC1=C(C(=O)N/N=C/c2ccccc2O)C(c2ccccc2Cl)NC(=O)N1 (stereo not shown) [Compound 2b, (E)-4-(2-Chlorophenyl)-N-(2-hydroxybenzylidene)-6-methyl-2-oxo-1,2,3,4-tetrahydropyrimidine-5-carbohydrazide] | 65.5 ± 0.08 | 31.93 ± 0.0029 | –
3 | COc1ccccc1/C=N/NC(=O)C1=C(C)NC(=O)NC1c1ccccc1 (stereo not shown) [Compound 1c, (E)-N-(2-Methoxybenzylidene)-6-methyl-2-oxo-4-phenyl-1,2,3,4-tetrahydropyrimidine-5-carbohydrazide] | 56.47 ± 0.37 | 39.72 ± 0.0027 | –
4 | COc1ccccc1/C=N/NC(=O)C1=C(C)NC(=O)NC1c1ccc(Cl)cc1Cl (stereo not shown) [Compound 3c] | 61 ± 0.08 | 33.73 ± 0.0024 | –
5 | CC1=C(C(=O)N/N=C/c2ccccc2)C(c2ccccc2F)NC(=O)N1 (stereo not shown) [Compound 4a] | 64.78 ± 0.33 | 30.47 ± 0.0025 | –
6 | COc1ccccc1/C=N/NC(=O)C1=C(C)NC(=O)NC1c1ccc(F)cc1F (stereo not shown) [Compound 5c] | 58.54 ± 0.27 | 37.63 ± 0.0026 | –
7 | CC1=C(C(=O)N/N=C/c2ccccc2O)C(c2ccccc2)NC(=O)N1 (stereo not shown) [Compound 1b, (E)-N-(2-Hydroxybenzylidene)-6-methyl-2-oxo-4-phenyl-1,2,3,4-tetrahydropyrimidine-5-carbohydrazide] | 42.69 ± 0.28 | 54.73 ± 0.0025 | Fasting Blood Glucose ± SEM, On Day 1 [1]: 261.00 ± 8.44 mg/dL; Fasting Blood Glucose ± SEM, On Day 7 [1]: 215.03 ± 3.29 mg/dL; Fasting Blood Glucose ± SEM, On Day 14 [1]: 187.05 ± 6.48 mg/dL; Fasting Blood Glucose ± SEM, On Day 21 [1]: 160.12 ± 6.18 mg/dL; Acute toxicity, mortality [3]: more than half of the animals died
8 | CC1=C(C(=O)N/N=C/c2ccccc2O)C(c2ccc(F)cc2F)NC(=O)N1 (stereo not shown) [Compound 5b, (E)--4-(2,4-Difluorophenyl)-N-(2-hydroxybenzyldene)-6-methyl-2-oxo-1,2,3,4-tetrahydropyrimidine-5-carbohydrazide] | 70.7 ± 0.37 | 28.13 ± 0.0029 | Fasting Blood Glucose ± SEM, On Day 1 [1]: 253.83 ± 4.49 mg/dL; Fasting Blood Glucose ± SEM, On Day 7 [1]: 182.00 ± 8.11 mg/dL; Fasting Blood Glucose ± SEM, On Day 14 [1]: 167.16 ± 6.23 mg/dL; Fasting Blood Glucose ± SEM, On Day 21 [1]: 157.33 ± 5.75 mg/dL; Fasting Blood Glucose ± SEM, On Day 21 ([1]; listed as Compound 5b): 157.33 ± 5.75 mg/dL; Acute toxicity, mortality [3]: more than half of the animals died
9 | N[C@@H](CC(=O)N1CCn2c(nnc2C(F)(F)F)C1)Cc1cc(F)c(F)cc1F [Sitagliptin, reference compound] | – | – | Fasting Blood Glucose ± SEM, On Day 1 [1]: 240.16 ± 9.88 mg/dL; Fasting Blood Glucose ± SEM, On Day 7 [1]: 178.66 ± 6.92 mg/dL; Fasting Blood Glucose ± SEM, On Day 14 [1]: 175.16 ± 8.61 mg/dL; Fasting Blood Glucose ± SEM, On Day 21 [1]: 133.50 ± 11.80 mg/dL; Long-term inhibition ([4]; after 8 h): > 70%; Glucose excursion ([4]; at 8 h): 35%
10 | COc1ccccc1/C=N/NC(=O)C1=C(C)NC(=O)NC1c1ccccc1Cl (stereo not shown) [Compound 2c, (E)-4-(2-Chlorophenyl)-N-(2-methoxybenzylidene)-6-methyl-2-oxo-1,2,3,4-tetrahydropyrimidine-5-carbohydrazide] | 63.25 ± 0.05 | 33.97 ± 0.0025 | –
11 | CC1=C(C(=O)N/N=C/c2ccccc2)C(c2ccc(F)cc2F)NC(=O)N1 (stereo not shown) [Compound 5a, (E)-N-Benzylidene-4-(2,4-difluorophenyl)-6-methyl-2-oxo-1,2,3,4-tetrahydropyrimidine-5-carbohydrazide] | 44.2 ± 0.28 | 65.31 ± 0.0021 | –
12 | COc1ccc(/C=N/NC(=O)C2=C(C)NC(=O)NC2c2ccccc2Cl)cc1 (stereo not shown) [Compound 2d, (E)-4-(2-Chlorophenyl)-N-(4-methoxybenzylidene)-6-methyl-2-oxo-1,2,3,4-tetrahydropyrimidine-5-carbohydrazide] | 64.78 ± 0.33 | 31.72 ± 0.0021 | –
13 | CC1=C(C(=O)N/N=C/c2ccccc2)C(c2ccccc2Cl)NC(=O)N1 (stereo not shown) [Compound 2a, (E)-N-Benzylidene-4-(2-chlorophenyl)-6-methyl-2-oxo-1,2,3,4-tetrahydropyrimidin-5-carbohydrazide] | 61.25 ± 0.16 | 32.41 ± 0.0033 | –
14 | COc1ccc(/C=N/NC(=O)C2=C(C)NC(=O)NC2c2ccccc2F)cc1 (stereo not shown) [Compound 4d, (E)--4-(2-Fluorophenyl)-N-(4-methoxybenzyldene)-6-methyl-2-oxo-1,2,3,4-tetrahydropyrimidine-5-carbohydrazide] | 57.74 ± 0.38 | 38.62 ± 0.0025 | –
15 | CC1=C(C(=O)N/N=C/c2ccccc2)C(c2ccc(Cl)cc2Cl)NC(=O)N1 (stereo not shown) [Compound 3a, (E)-N-Benzylidene-4-(2,4-dichlorophenyl)-6-methyl-2-oxo-1,2,3,4-tetrahydropyrimidine-5-carbohydrazide] | 61.25 ± 0.16 | 33.91 ± 0.0029 | –
16 | CC1=C(C(=O)N/N=C/c2ccccc2O)C(c2ccccc2F)NC(=O)N1 (stereo not shown) [Compound 4b, (E)--4-(2-Fluorophenyl)-N-(2-hydroxybenzyldene)-6-methyl-2-oxo-1,2,3,4-tetrahydropyrimidine-5-carbohydrazide] | 63.8 ± 0.16 | 31.75 ± 0.0027 | –
17 | CC1=C(C(=O)N/N=C/c2ccccc2)C(c2ccccc2)NC(=O)N1 (stereo not shown) [Compound 1a, (E)-N-Benzylidene-6-methyl-2-oxo-4-phenyl-1,2,3,4-tetrahydropyrimidine-5-carbohydrazide] | 40.74 ± 0.38 | 58.95 ± 0.0012 | –
18 | CC1=C(C(=O)N/N=C/c2ccccc2O)C(c2ccc(Cl)cc2Cl)NC(=O)N1 (stereo not shown) [Compound 3b, (E)--4-(2,4-Dichlorophenyl)-N-(2-hydroxybenzyldene)-6-methyl-2-oxo-1,2,3,4-tetrahydropyrimidine-5-carbohydrazide] | 61 ± 0.08 | 33.79 ± 0.0021 | –
19 | COc1ccc(/C=N/NC(=O)C2=C(C)NC(=O)NC2c2ccccc2)cc1 (stereo not shown) [Compound 1d, (E)-N-(4-Methoxybenzylidene)-6-methyl-2-oxo-4-phenyl-1,2,3,4-tetrahydropyrimidine-5-carbohydrazide] | 57.74 ± 0.38 | 38.26 ± 0.005 | –
